# Laboratory results published in article PMC9986241 (Signal Transduction and Targeted Therapy, 2023).
# Key:
# Experiment in all cases: KinaseProfiler enzyme profiling
# Type in all cases: biochemical
# [1] = biological target: T1, EphB4(h) (Homo sapiens, UniProt P54760)
# T1 construct: purchased Eurofins KinaseProfiler
# Procedure: (§1) Enzyme profiling services were provided by KinaseProfiler™ (Eurofin, Brussels, Belgium). The concentration of erianin was 100 nM, and total 70 kinases were tested in this in vitro screening and profiling services (2 repetitions). For more details, refer to the manufacturer’s instructions (www.eurofinsdiscoveryservices.com).
# [2] = biological target: T2, Pim-1(h) (Homo sapiens, UniProt P11309)
# T2 construct: purchased Eurofins KinaseProfiler
# Procedure: as §1
# [3] = biological target: T3, MAPK2(h) (Homo sapiens, UniProt P28482)
# T3 construct: purchased Eurofins KinaseProfiler
# Procedure: as §1
# [4] = biological target: T4, CDK2/cyclinA(h) (Homo sapiens, UniProt P24941)
# T4 construct: purchased Eurofins KinaseProfiler
# Procedure: as §1
# [5] = biological target: T5, CDK6/cyclinD3(h) (Homo sapiens, UniProt Q00534)
# T5 construct: purchased Eurofins KinaseProfiler
# Procedure: as §1
# [6] = biological target: T6, CDK9/cyclin T1(h) (Homo sapiens, UniProt P50750)
# T6 construct: purchased Eurofins KinaseProfiler
# Procedure: as §1
# [7] = biological target: T7, NEK2(h) (Homo sapiens, UniProt P51955)
# T7 construct: purchased Eurofins KinaseProfiler
# Procedure: as §1
# [8] = biological target: T8, EGFR(h) (Homo sapiens, UniProt P00533)
# T8 construct: purchased Eurofins KinaseProfiler
# Procedure: as §1
# [9] = biological target: T9, EGFR(T790M,L858R)(h) (Homo sapiens, UniProt P00533, L858R/T790M)
# T9 construct: purchased Eurofins KinaseProfiler
# Procedure: as §1
# [10] = biological target: T10, PAK2(h) (Homo sapiens, UniProt Q13177)
# T10 construct: purchased Eurofins KinaseProfiler
# Procedure: as §1
# [11] = biological target: T11, MEK1(h) (Homo sapiens, UniProt Q02750)
# T11 construct: purchased Eurofins KinaseProfiler
# Procedure: as §1
# [12] = biological target: T12, PAK4(h) (Homo sapiens, UniProt O96013)
# T12 construct: purchased Eurofins KinaseProfiler
# Procedure: as §1
# [13] = biological target: T13, JAK1(h) (Homo sapiens, UniProt P23458)
# T13 construct: purchased Eurofins KinaseProfiler
# Procedure: as §1
# [14] = biological target: T14, IKKα(h) (Homo sapiens, UniProt O15111)
# T14 construct: purchased Eurofins KinaseProfiler
# T14 sequence (O15111 1-745): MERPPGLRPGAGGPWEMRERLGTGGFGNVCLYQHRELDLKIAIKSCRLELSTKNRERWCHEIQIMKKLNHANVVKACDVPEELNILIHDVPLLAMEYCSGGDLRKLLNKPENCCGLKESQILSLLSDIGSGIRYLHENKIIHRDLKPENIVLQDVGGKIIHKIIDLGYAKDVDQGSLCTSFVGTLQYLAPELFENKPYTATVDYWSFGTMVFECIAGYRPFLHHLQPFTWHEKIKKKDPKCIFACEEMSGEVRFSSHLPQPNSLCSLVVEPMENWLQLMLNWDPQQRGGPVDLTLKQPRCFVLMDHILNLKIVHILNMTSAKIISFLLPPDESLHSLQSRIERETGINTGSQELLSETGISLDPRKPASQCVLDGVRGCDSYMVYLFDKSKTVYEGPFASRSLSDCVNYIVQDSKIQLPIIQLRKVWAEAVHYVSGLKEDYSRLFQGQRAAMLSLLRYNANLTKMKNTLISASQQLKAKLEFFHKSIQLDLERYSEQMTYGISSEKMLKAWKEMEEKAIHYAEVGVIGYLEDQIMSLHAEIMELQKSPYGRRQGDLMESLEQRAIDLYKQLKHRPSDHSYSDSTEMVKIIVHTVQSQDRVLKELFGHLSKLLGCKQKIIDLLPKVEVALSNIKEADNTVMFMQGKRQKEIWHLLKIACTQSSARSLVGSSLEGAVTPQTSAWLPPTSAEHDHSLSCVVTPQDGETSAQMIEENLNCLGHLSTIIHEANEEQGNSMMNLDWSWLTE
# Procedure: as §1
# [15] = biological target: T15, CDK3/cyclinE(h) (Homo sapiens, UniProt Q00526)
# T15 construct: purchased Eurofins KinaseProfiler
# Procedure: as §1
# [16] = biological target: T16, PAK1(h) (Homo sapiens, UniProt Q13153)
# T16 construct: purchased Eurofins KinaseProfiler
# Procedure: as §1
# [17] = biological target: T17, MAPK1(h) (Homo sapiens, UniProt P27361)
# T17 construct: purchased Eurofins KinaseProfiler
# Procedure: as §1
# [18] = biological target: T18, p70S6K(h) (Homo sapiens, UniProt P23443)
# T18 construct: purchased Eurofins KinaseProfiler
# Procedure: as §1
# [19] = biological target: T19, B-Raf(h) (Homo sapiens, UniProt P15056)
# T19 construct: purchased Eurofins KinaseProfiler
# Procedure: as §1
# [20] = biological target: T20, FGFR1(h) (Homo sapiens, UniProt P11362)
# T20 construct: purchased Eurofins KinaseProfiler
# Procedure: as §1
# [21] = biological target: T21, mTOR(h) (Homo sapiens, UniProt P42345)
# T21 construct: purchased Eurofins KinaseProfiler
# Procedure: as §1
# [22] = biological target: T22, IKKβ(h) (Homo sapiens, UniProt O14920)
# T22 construct: purchased Eurofins KinaseProfiler
# Procedure: as §1
# [23] = biological target: T23, AMPKα1(h) (Homo sapiens, UniProt Q13131)
# T23 construct: purchased Eurofins KinaseProfiler
# Procedure: as §1
# [24] = biological target: T24, PDGFRβ(h) (Homo sapiens, UniProt P09619)
# T24 construct: purchased Eurofins KinaseProfiler
# Procedure: as §1
# [25] = biological target: T25, JNK1α1(h) (Homo sapiens, UniProt P45983)
# T25 construct: purchased Eurofins KinaseProfiler
# Procedure: as §1
# [26] = biological target: T26, SAPK4(h) (Homo sapiens, UniProt O15264)
# T26 construct: purchased Eurofins KinaseProfiler
# Procedure: as §1
# [27] = biological target: T27, PKBβ(h) (Homo sapiens, UniProt P31751)
# T27 construct: purchased Eurofins KinaseProfiler
# Procedure: as §1
# [28] = biological target: T28, PKBα(h) (Homo sapiens, UniProt P31749)
# T28 construct: purchased Eurofins KinaseProfiler
# Procedure: as §1
# [29] = biological target: T29, CDK4/cyclinD3(h) (Homo sapiens, UniProt P11802)
# T29 construct: purchased Eurofins KinaseProfiler
# Procedure: as §1
# [30] = biological target: T30, JAK3(h) (Homo sapiens, UniProt P52333)
# T30 construct: purchased Eurofins KinaseProfiler
# Procedure: as §1
# [31] = biological target: T31, JNK3(h) (Homo sapiens, UniProt P53779)
# T31 construct: purchased Eurofins KinaseProfiler
# Procedure: as §1
# [32] = biological target: T32, SAPK3(h) (Homo sapiens, UniProt P53778)
# T32 construct: purchased Eurofins KinaseProfiler
# Procedure: as §1
# T12 sequence (O96013 whole entry): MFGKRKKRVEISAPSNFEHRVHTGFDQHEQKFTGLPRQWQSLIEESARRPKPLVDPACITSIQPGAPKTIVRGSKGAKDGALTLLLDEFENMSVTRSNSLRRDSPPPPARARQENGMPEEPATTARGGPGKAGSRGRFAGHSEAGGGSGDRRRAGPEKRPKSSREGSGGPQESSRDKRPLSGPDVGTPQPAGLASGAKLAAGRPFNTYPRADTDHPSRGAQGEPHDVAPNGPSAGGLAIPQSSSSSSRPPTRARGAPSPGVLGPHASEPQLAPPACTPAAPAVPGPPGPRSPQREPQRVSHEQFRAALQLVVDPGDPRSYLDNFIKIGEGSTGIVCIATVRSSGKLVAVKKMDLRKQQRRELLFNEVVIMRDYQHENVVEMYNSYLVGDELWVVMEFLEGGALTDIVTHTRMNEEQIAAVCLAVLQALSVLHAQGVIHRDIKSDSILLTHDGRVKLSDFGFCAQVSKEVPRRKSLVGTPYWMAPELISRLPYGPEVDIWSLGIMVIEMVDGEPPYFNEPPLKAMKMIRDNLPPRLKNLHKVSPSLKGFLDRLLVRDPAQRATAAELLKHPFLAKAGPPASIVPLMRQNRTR
# T3 sequence (P28482 whole entry): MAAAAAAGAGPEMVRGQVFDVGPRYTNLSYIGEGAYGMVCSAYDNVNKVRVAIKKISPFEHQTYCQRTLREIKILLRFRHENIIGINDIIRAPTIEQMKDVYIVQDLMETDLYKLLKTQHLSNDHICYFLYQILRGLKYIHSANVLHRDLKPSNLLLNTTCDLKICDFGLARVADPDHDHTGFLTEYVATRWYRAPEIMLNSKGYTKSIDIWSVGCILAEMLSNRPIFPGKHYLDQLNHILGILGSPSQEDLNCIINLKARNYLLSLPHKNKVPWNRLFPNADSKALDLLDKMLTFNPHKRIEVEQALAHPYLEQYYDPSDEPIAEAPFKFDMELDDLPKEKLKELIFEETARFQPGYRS
# T11 sequence (Q02750 whole entry): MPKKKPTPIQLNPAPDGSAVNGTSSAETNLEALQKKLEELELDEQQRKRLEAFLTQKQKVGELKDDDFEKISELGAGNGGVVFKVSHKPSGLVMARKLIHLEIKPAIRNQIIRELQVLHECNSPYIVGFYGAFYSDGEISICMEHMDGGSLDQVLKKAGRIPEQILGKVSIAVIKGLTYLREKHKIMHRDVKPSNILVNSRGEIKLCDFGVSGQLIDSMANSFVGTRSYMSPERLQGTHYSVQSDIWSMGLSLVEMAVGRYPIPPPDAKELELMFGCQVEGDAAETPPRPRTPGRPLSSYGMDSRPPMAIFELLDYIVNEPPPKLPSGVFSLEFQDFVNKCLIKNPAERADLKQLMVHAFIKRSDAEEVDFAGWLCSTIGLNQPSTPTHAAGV
# T17 sequence (P27361 whole entry): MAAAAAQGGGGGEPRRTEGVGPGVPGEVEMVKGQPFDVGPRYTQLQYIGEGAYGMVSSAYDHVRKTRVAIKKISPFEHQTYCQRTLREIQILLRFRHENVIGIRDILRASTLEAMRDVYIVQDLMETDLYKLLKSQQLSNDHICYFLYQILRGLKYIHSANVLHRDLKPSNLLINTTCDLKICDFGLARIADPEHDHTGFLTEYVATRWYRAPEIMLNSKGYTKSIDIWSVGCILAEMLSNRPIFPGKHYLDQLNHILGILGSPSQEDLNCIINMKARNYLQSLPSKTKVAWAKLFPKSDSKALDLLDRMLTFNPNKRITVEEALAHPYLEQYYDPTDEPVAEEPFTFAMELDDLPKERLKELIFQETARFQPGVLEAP
# T16 sequence (Q13153 whole entry): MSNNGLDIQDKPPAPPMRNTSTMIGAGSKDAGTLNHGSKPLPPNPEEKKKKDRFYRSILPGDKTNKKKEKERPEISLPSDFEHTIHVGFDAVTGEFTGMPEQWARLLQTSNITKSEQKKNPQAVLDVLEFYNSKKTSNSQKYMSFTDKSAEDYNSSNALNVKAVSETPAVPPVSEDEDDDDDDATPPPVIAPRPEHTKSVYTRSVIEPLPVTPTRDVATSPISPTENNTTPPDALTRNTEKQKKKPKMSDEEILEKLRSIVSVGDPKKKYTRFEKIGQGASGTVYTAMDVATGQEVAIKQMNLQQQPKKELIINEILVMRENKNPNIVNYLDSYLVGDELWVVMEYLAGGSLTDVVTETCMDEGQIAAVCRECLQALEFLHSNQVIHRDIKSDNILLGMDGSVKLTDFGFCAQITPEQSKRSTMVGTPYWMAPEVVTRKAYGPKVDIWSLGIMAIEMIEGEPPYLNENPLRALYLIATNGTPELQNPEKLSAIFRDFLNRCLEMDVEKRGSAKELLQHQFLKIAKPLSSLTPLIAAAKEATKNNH
# T6 sequence (P50750 whole entry): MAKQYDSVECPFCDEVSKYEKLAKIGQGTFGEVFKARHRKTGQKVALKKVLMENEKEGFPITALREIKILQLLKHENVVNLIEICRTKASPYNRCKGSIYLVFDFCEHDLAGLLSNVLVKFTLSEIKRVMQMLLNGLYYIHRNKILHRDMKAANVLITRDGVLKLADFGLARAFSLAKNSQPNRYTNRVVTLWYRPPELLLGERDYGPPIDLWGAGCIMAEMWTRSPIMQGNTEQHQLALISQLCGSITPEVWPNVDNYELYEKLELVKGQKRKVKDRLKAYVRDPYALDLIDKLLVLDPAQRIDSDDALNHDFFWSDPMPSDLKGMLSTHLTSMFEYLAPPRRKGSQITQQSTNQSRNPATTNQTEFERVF
# T6 sequence (O60563 whole entry partner): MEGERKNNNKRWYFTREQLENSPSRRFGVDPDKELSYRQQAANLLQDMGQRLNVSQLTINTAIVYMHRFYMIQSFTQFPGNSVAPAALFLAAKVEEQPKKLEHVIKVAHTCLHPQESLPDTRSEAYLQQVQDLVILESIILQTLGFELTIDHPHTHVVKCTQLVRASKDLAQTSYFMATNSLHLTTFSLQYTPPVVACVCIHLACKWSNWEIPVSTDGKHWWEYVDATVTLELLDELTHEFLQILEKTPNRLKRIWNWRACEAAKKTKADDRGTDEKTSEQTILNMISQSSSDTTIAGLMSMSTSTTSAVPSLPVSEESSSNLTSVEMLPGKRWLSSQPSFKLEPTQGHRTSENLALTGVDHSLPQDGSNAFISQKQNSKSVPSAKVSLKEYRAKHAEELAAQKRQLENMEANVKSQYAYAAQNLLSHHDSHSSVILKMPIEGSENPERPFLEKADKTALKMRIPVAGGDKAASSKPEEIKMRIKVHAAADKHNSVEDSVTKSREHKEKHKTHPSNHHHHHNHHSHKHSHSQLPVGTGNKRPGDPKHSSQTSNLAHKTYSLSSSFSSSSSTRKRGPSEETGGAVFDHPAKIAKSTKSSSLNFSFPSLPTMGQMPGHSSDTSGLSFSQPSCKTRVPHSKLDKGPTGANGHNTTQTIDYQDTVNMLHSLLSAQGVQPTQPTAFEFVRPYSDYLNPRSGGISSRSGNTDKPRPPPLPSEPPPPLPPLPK
# T13 sequence (P23458 whole entry): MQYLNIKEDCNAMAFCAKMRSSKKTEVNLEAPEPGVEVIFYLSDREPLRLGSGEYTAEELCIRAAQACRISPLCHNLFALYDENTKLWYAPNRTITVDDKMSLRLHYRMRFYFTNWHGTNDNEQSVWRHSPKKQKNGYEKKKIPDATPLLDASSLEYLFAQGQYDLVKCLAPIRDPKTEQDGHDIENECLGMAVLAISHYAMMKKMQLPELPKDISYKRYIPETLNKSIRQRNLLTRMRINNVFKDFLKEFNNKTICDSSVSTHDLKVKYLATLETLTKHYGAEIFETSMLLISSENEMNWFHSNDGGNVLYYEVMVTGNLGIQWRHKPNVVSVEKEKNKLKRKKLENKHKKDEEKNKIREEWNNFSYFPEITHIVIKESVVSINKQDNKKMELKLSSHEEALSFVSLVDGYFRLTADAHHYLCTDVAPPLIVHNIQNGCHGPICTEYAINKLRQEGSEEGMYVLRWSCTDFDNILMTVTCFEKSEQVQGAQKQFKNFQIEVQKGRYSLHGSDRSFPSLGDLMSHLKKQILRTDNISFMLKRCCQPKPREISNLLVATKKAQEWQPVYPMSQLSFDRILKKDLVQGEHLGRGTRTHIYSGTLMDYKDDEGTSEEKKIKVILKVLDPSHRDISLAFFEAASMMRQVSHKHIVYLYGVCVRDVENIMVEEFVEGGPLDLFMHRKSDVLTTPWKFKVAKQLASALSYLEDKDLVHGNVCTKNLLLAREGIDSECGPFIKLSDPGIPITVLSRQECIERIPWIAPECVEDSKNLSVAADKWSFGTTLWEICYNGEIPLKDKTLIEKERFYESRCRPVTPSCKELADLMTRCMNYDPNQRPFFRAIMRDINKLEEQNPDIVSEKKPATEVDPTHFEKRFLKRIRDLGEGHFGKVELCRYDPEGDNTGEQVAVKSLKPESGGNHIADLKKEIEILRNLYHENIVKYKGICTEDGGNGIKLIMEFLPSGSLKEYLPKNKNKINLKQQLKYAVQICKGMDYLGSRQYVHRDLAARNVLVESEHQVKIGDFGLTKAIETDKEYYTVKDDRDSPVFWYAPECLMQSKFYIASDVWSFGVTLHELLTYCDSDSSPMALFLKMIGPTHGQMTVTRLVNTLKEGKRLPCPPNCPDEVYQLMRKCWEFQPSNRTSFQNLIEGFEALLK
# T25 sequence (P45983 1-384 isoform P45983-2): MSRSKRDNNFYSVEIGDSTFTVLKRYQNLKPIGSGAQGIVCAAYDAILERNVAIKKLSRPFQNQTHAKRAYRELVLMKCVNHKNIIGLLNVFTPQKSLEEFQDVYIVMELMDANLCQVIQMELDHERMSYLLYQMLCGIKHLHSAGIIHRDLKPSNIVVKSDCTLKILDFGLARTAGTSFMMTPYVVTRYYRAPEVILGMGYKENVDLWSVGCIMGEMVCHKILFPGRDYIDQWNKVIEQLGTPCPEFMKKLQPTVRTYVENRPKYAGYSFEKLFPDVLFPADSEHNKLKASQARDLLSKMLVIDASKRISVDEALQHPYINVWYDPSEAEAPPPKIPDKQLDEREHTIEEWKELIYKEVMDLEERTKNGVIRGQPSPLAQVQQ
smiles,measurement,setting,value
COc1cc2oc(-c3ccc(O)c(O)c3)cc(=O)c2c(O)c1OC [Cirsiliol],activity at 10 µM,[1]; 10 µM,86%
same,activity at 10 µM,[2]; 10 µM,112%
same,activity at 10 µM,[3],114%
same,activity at 10 µM,[4],91%
same,activity at 10 µM,[5],101%
same,activity at 10 µM,[6],98%
same,activity at 10 µM,[7],105%
same,activity at 10 µM,[8],98%
same,activity at 10 µM,[9]; 10 µM,101%
same,activity at 10 µM,[10],111%
same,activity at 10 µM,[11],105%
same,activity at 10 µM,[12],104%
same,activity at 10 µM,[13],99%
same,activity at 10 µM,[14],102%
same,activity at 10 µM,[15],97%
same,activity at 10 µM,[16],104%
same,activity at 10 µM,[17],103%
same,activity at 10 µM,[18],95%
same,activity at 10 µM,[19]; 10 µM,104%
same,activity at 10 µM,[20]; 10 µM,103%
COc1ccc(CCc2cc(OC)c(OC)c(OC)c2)cc1O [Erianin],activity at 0.1 µM,[21],104%
same,activity at 0.1 µM,[22],95%
same,activity at 0.1 µM,[1],108%
same,activity at 0.1 µM,[2],98%
same,activity at 0.1 µM,[23],108%
same,activity at 0.1 µM,[3],104%
same,activity at 0.1 µM,[24],133%
same,activity at 0.1 µM,[25],101%
same,activity at 0.1 µM,[26],103%
same,activity at 0.1 µM,[27],97%
same,activity at 0.1 µM,[4],94%
same,activity at 0.1 µM,[28],105%
same,activity at 0.1 µM,[6],97%
same,activity at 0.1 µM,[29],105%
same,activity at 0.1 µM,[30],98%
same,activity at 0.1 µM,[8],105%
same,activity at 0.1 µM,[31],111%
same,activity at 0.1 µM,[9],120%
same,activity at 0.1 µM,[10],107%
same,activity at 0.1 µM,[11],99%
same,activity at 0.1 µM,[12],93%
same,activity at 0.1 µM,[13],117%
same,activity at 0.1 µM,[14],108%
same,activity at 0.1 µM,[16],109%
same,activity at 0.1 µM,[17],92%
same,activity at 0.1 µM,[32],112%
same,activity at 0.1 µM,[19],103%
same,activity at 0.1 µM,[20],118%
C=C1C(=O)[C@]23[C@H](O)[C@H]1CC[C@H]2[C@@]12CO[C@]3(O)[C@@H](O)[C@@H]1C(C)(C)CC[C@@H]2O [Oridonin],activity at 10 µM,[21]; 10 µM,81%
same,activity at 10 µM,[22]; 10 µM,105%
same,activity at 10 µM,[23]; 10 µM,75%
same,activity at 10 µM,[3],82%
same,activity at 10 µM,[24]; 10 µM,94%
same,activity at 10 µM,[25]; 10 µM,107%
same,activity at 10 µM,[26]; 10 µM,106%
same,activity at 10 µM,[27]; 10 µM,106%
same,activity at 10 µM,[4],67%
same,activity at 10 µM,[28]; 10 µM,90%
same,activity at 10 µM,[5],69%
same,activity at 10 µM,[6],59%
same,activity at 10 µM,[29]; 10 µM,109%
same,activity at 10 µM,[30]; 10 µM,89%
same,activity at 10 µM,[7],90%
same,activity at 10 µM,[8],91%
same,activity at 10 µM,[31]; 10 µM,54%
same,activity at 10 µM,[10],99%
same,activity at 10 µM,[11],92%
same,activity at 10 µM,[12],86%
same,activity at 10 µM,[13],75%
same,activity at 10 µM,[14],80%
same,activity at 10 µM,[15],70%
same,activity at 10 µM,[16],110%
same,activity at 10 µM,[17],63%
same,activity at 10 µM,[18],53%
same,activity at 10 µM,[32]; 10 µM,122%
